Results from ChEMBL document CHEMBL1147309, “Antitumor agents, 110. Bryophyllin B, a novel potent cytotoxic bufadienolide from Bryophyllum pinnatum” (1989).
In brackets after ≈: the same amount, converted by molar mass.

Legend:
Assay type in all cases: functional
Details in all cases: read-out: ED50 (the source's name)
[1] = system: KB; test: Cytotoxicity against human KB cells
[2] = system: A549; test: Cytotoxicity against human A549 cells
[3] = system: HCT-8; test: Cytotoxicity against human HCT8 cells
[4] = system: P388; test: Cytotoxicity against mouse P388 cells
[5] = system: L1210; test: Cytotoxicity against mouse L1210 cells

Structure (SMILES) | EC50 [1] [µg/mL] | EC50 [2] [µg/mL] | EC50 [3] [µg/mL] | EC50 [4] [µg/mL] | EC50 [5] [µg/mL]
CC(=O)O[C@H]1C[C@@H](O)[C@]2(C=O)[C@H]3CC[C@]4(C)[C@@H](c5ccc(=O)oc5)CC[C@]4(O)[C@@H]3CC[C@]2(O)C1 | < 0.04 | 0.04 (≈ 0.0843 µM) | 0.01 (≈ 0.0211 µM) | > 0.004 | > 0.004
C[C@@]12O[C@H]3C[C@@H](O1)[C@]1(C=O)[C@H]4[C@H](O)C[C@]5(C)[C@@H](c6ccc(=O)oc6)CC[C@]5(O)[C@@H]4CC[C@@]1(C3)O2 [BRYOPHYLLIN A] | 0.014 (≈ 0.0296 µM) | 0.01 (≈ 0.0212 µM) | 0.03 (≈ 0.0635 µM) | > 0.004 | > 0.004
CC(=O)O[C@@H]1C[C@H](O)C[C@@]2(O)CC[C@@H]3[C@@H]4[C@@H](C[C@]5(C)[C@@H](c6ccc(=O)oc6)CC[C@]35O)O[C@H](O)[C@]412 [BRYOPHYLLIN B] | < 0.08 | – | – | – | –
